Patent publication US20220315967A1, “METHODS FOR PRODUCING D-TRYPTOPHAN AND SUBSTITUTED D-TRYPTOPHANS” (priority 2019, published 2022)
Like-named read-outs stand apart in the source and are kept apart here.

Assays:
IvoA-C = target: T1, IvoA-C (Emericella nidulans, UniProt C8V7P4); test: Thioesterase assay of standalone IvoA-C with synthetic thioester substrates; assay type: biochemical, Aspergillus nidulans; settings: pH 6.9, boiled enzyme control
T1 construct: were incubated with standalone IvoA C domain at pH 6.9; hexahistidine (His6) with TEV protease site (N); made in house; host or cells: E. coli BL21(DE3)
Description: FIG. 17 provides data and associated schematics for an In vitro assay of IvoA-C with synthetic thioester substrates. Synthetic thioester substrates (DL-tryptophan-S—N-acetylcysteamine, DL-Trp-SNAC: D-tryptophan-S-pantatheine, D-Trp-pant) were incubated with standalone IvoA C domain at pH 6.9. Enzymes were boiled to measure the nonenzymatic hydrolysis. Free tryptophan and tryptophanyl thioesters were separated by HPLC.
The thioesterase activity assay of standalone IvoA-C was performed in ammonium acetate buffer (20 mM, pH=6.9). Typically, 5 mM synthetic substrate (5% DMSO) was incubated with 50 μM enzyme. The reaction was analyzed by HPLC. Boiled enzyme was used as control to measure the background nonenzymatic hydrolysis.

IvoA = target: T2, IvoA (Emericella nidulans, UniProt C8V7P4); test: Biocatalytic stereoinversion or deracemization of tryptophan and substituted tryptophans by IvoA (chiral-HPLC); assay type: biochemical, Aspergillus nidulans; settings: for ee (%): ee of D-enantiomer, 1.5 mM substrates, 5 μM IvoA, 5 mM ATP, 10 mM MgCl2, 100 mM K2HPO4 buffer, pH 7.5
T2 construct: The full-length wild-type IvoA and mutants were expressed in S. cerevisiae JHY686 strain; octahistidine (His8) (N); made in house; host or cells: Saccharomyces cerevisiae JHY686
Description: […] The solvent was removed in vaccuo by speedvac and the residue was dissolved in ethanol and analyzed by chiral-HPLC by using a Crownpak® CR(+) column (150 mm×4 mm×3.5 μm, Daicel) at room temperature. The mobile phase was aq. HClO4 1% (w/v) supplemented with 15% (v/v) MeOH and the flow rate was 1.0 ml/min.

IvoA A domain = target: T3, IvoA A domain (Emericella nidulans, UniProt C8V7P4, S785A); test: Hydroxylamine-based colorimetric adenylation assay; assay type: biochemical, Aspergillus nidulans
T3 construct: The full-length wild-type IvoA and mutants were expressed in S. cerevisiae JHY686 strain; octahistidine (His8) (N); made in house; host or cells: Saccharomyces cerevisiae JHY686
Description: FIG. 9 provides data showing Hydroxylamine-based colorimetric assay for studying substrate specificity of IvoA A domain. The reaction condition is 2 μM of IvoA-T^0+3 mM of ATP+0.1 mM of carboxylic acid substrate+15 mM hydroxylamine+15 mM MgCl2 in Tris buffer (pH 8.0). The reaction is quenched after 3 hrs by addition of equivalent volume (150 μL) of stopping solution (10% (w/v) FeCl3.H2O and 3.3% (w/v) trichloroacetic acid dissolved in 0.7 M HCl). The precipitated enzyme was removed by centrifugation and the supernatant was measured for its absorbance at 540 nm.
FIG. 19 provides data showing Adenylation assay of IvoA A domain with substituted tryptophan amino acids. The reaction was performed similarly according to the assay described in the caption of FIG. 9.

[1] = Apparent steady-state kinetics of L-tryptophan stereoinversion by IvoA and mutants (chiral-HPLC quantification of D-tryptophan); assay type: biochemical, Aspergillus nidulans; settings: for kcat^app / Km: L-tryptophan stereoinversion; for Km: read-out: Km^app
Description: FIG. 11 provides data showing the Apparent steady-state kinetics of IvoA catalyzed stereoinversion. […] The kinetic constants were shown in the main text. For WT, 1 μM enzyme was used in each assay and the reaction was quenched after 2 min. For E0 mutant, 10 μM enzyme was used in each assay and the reaction was quenched after 60 min. For C0 mutant, 50 μM enzyme was used in each assay and the reaction was quenched after 60 min.
Chiral-resolution allowed us to determine the apparent steady-state kinetics by quantifying D-tryptophan formation (Table 1, FIG. 11). […] Both E and C domains are catalytically important for IvoA, as inactivating either domain by mutating the catalytic histidine residues (H963A and H1428A) substantially compromised the apparent turnover number kcat (420-fold by E^0 while 4700-fold by C^0).
The ATP-dependent stereoinversion activity was typically performed with 2-5 μM IvoA, 1 mM L/D-tryptophan, 3 mM ATP and 10 mM MgCl2 in 100 mM phosphate buffer (pH 7.5), and the reaction was quenched by mixing with 5-volume of methanol. The solvent was removed in vaccuo by speedvac and the residue was dissolved in ethanol and analyzed by chiral-HPLC by using a Crownpak® CR(+) column (150 mm×4 mm×3.5 μm, Daicel) at room temperature. The mobile phase was aq. HClO4 1% (w/v) supplemented with 15% (v/v) MeOH and the flow rate was 1.0 ml/min.

[2] = enzyme >50 μM, overnight incubation
Description: The reaction condition is 100 μM of IvoA+2 mM of ATP+1 mM of L-tryptophan+1 mM of AcCoA+5 mM MgCl2 in phosphate buffer (pH 7.5).
Acetyltryptophan acetyltransferase activity was performed by incubating 1-100 μM IvoA with 1 mM D-tryptophan or other substrates with 1 mM acetyl-CoA or 1 mM acetyl-phosphate in 100 mM phosphate buffer (pH 7.5). The reaction mixture was incubated at room temperature and the reaction was quenched at different time interval by mixing with 5-fold volume of methanol. The mixture was clarified by centrifugation to remove protein and salts, and the supernatant was dried in vaccuo by using speedvac. The residue was dissolved in methanol and subjected to LC-MS analysis. For ATP-dependent acetyltransferase activity, 1 mM LD-tryptophan, 5 mM ATP, 1 mM CoA and 5 mM MgCl2 were used.

T2 sequence (C8V7P4 other isoform, or with tags, fused parts or gaps): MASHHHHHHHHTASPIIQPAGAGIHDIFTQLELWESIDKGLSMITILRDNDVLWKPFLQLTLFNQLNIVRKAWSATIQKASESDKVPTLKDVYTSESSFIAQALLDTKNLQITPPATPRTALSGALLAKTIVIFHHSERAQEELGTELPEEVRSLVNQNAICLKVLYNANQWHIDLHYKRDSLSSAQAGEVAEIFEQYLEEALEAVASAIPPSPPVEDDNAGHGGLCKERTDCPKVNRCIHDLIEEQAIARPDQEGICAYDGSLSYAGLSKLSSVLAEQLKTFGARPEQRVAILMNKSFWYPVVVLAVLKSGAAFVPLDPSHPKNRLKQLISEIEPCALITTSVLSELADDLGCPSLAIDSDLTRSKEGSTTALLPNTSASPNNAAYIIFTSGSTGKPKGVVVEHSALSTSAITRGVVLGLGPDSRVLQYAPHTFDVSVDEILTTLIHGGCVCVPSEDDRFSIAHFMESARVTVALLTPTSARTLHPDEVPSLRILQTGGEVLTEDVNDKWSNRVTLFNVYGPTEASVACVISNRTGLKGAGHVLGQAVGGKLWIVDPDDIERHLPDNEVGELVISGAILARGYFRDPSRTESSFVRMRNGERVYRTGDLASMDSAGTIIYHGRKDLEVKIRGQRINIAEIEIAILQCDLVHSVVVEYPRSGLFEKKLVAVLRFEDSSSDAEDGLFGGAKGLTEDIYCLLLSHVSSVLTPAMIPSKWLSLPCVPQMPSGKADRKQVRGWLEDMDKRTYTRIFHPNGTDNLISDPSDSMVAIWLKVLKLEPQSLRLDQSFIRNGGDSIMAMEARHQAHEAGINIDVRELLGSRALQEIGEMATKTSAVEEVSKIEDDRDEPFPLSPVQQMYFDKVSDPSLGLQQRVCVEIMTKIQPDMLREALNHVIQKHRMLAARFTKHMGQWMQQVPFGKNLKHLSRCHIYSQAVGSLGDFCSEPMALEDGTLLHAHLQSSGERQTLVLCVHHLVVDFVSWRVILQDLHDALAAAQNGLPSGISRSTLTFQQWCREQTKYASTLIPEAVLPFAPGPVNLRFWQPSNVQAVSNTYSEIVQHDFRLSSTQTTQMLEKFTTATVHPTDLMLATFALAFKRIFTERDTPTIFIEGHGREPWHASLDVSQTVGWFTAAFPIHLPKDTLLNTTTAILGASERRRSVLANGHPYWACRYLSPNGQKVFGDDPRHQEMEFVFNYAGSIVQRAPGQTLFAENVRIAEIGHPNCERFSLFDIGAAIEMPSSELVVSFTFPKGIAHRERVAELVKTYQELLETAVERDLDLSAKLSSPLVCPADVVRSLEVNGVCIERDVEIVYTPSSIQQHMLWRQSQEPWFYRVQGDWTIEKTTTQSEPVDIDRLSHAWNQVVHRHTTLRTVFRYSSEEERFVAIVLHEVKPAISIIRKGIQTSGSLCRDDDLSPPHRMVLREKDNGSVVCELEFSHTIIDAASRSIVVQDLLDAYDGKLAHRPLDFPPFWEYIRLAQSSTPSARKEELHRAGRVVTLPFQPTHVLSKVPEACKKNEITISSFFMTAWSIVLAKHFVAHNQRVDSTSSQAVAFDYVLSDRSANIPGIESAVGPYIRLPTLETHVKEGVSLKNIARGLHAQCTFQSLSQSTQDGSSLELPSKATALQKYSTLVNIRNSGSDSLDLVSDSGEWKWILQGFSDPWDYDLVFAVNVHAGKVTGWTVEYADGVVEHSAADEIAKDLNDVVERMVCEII
T1 sequence (C8V7P4 1325-1477): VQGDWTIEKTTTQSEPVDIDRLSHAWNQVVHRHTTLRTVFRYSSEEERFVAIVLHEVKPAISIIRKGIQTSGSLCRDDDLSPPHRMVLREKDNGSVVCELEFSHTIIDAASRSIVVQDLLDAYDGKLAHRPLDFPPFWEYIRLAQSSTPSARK
T3 sequence (C8V7P4 whole entry S785A): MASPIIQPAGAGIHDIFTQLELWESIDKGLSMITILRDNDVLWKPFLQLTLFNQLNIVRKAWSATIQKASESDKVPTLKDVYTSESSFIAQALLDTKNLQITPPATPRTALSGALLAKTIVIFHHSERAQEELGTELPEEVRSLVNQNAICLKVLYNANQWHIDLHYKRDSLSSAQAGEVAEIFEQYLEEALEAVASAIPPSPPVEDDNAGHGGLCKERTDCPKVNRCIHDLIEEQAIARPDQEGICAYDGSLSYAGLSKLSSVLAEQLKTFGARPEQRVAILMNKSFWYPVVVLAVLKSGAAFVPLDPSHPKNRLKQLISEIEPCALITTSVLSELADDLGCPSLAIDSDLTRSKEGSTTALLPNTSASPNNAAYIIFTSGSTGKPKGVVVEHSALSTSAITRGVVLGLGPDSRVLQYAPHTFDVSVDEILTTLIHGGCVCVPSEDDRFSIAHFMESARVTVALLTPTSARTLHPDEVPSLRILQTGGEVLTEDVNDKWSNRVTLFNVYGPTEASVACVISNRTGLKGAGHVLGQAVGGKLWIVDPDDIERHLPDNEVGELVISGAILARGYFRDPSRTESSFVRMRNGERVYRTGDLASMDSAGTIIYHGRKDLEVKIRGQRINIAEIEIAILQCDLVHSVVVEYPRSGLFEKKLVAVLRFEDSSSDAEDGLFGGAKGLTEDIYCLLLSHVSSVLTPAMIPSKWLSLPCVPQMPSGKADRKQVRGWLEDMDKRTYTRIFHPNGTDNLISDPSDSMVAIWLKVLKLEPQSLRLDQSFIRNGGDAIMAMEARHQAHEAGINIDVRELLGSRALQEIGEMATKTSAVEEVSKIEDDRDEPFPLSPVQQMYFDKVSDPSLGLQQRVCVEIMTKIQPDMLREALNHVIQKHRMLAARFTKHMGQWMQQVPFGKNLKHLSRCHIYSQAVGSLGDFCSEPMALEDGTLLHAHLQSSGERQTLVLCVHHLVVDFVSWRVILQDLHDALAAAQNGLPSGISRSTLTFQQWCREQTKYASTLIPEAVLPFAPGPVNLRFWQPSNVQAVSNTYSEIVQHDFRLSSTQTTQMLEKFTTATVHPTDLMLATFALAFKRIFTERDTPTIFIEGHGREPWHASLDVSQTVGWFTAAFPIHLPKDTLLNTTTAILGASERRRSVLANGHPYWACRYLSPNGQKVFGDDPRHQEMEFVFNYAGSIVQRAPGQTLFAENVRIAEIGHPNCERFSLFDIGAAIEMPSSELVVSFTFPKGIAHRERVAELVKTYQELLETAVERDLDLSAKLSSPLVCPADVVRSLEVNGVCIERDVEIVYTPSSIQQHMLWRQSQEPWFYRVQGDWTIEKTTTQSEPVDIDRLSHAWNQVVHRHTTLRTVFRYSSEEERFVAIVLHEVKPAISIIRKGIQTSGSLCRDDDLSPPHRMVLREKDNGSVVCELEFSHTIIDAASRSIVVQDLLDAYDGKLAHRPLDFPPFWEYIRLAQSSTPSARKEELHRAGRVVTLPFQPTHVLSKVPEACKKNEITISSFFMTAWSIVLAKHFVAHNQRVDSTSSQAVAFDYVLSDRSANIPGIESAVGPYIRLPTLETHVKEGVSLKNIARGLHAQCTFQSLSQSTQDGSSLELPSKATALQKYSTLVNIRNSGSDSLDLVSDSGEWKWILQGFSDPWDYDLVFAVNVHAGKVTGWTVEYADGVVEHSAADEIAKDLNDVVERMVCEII

Compound | ee (%) (IvoA) | also measured
CC(=O)NCCSC(=O)C(N)Cc1c[nH]c2ccccc12 (racemic) [DL-Trp-SNAC, DL-tryptophan-S—N-acetylcysteamine] | – | hydrolysis by IvoA-C versus nonenzymatic (IvoA-C): not good substrate
Cc1[nH]c2ccccc2c1CC(N)C(=O)O (racemic) [Entry 13, 2-Me-DL-tryptophan] | 1.3 | conversion by IvoA / substrate quality (IvoA): No conversion; activation by A domain (IvoA A domain): inefficient activation
CC(C)(CO)[C@@H](O)C(=O)NCCC(=O)NCCSC(=O)[C@H](N)Cc1c[nH]c2ccccc12 [D-Trp-pant, D-tryptophan-S-pantatheine] | – | hydrolysis by IvoA-C versus nonenzymatic (IvoA-C): not good substrate
N[C@H](Cc1c[nH]c2ccccc12)C(=O)O [D-tryptophan] | – | conversion by IvoA / substrate quality (IvoA): cannot convert
N[C@@H](Cc1c[nH]c2ccccc12)C(=O)O [Entry 1, L-tryptophan] | >99 | time to complete conversion of L-tryptophan to D-tryptophan (IvoA; 1 mM L-tryptophan, chiral-HPLC): 3 h; activation by A domain (IvoA A domain): preferred substrate
COc1ccc2[nH]cc(C[C@H](N)C(=O)O)c2c1 [Entry 2, 5-OMe-L-tryptophan] | >99 | –
N#Cc1ccc2[nH]cc(CC(N)C(=O)O)c2c1 (stereo not shown) [Entry 3] | 63 | conversion by IvoA / substrate quality (IvoA): poor substrates
NC(Cc1c[nH]c2ccc([N+](=O)[O-])cc12)C(=O)O (stereo not shown) [Entry 4] | 44 | conversion by IvoA / substrate quality (IvoA): poor substrates
NC(Cc1c[nH]c2cccc(F)c12)C(=O)O (stereo not shown) [Entry 5] | >99 | –
NC(Cc1c[nH]c2ccc(F)cc12)C(=O)O (stereo not shown) [Entry 6] | >99 | –
NC(Cc1c[nH]c2cc(F)ccc12)C(=O)O (stereo not shown) [Entry 7] | >99 | –
NC(Cc1c[nH]c2ccc(Cl)cc12)C(=O)O (stereo not shown) [Entry 8] | >99 | –
NC(Cc1c[nH]c2cc(Cl)ccc12)C(=O)O (stereo not shown) [Entry 9] | 98 | –
NC(Cc1c[nH]c2ccc(Br)cc12)C(=O)O (stereo not shown) [Entry 10] | >99 | –
NC(Cc1c[nH]c2cc(Br)ccc12)C(=O)O (stereo not shown) [Entry 11] | 75 | conversion by IvoA / substrate quality (IvoA): poor substrates
NC(Cc1c[nH]c2c(Br)cccc12)C(=O)O (stereo not shown) [Entry 12] | 87 | conversion by IvoA / substrate quality (IvoA): poor substrates
Cc1cccc2[nH]cc(CC(N)C(=O)O)c12 (stereo not shown) [Entry 14] | >99 | –
Cc1ccc2[nH]cc(CC(N)C(=O)O)c2c1 (stereo not shown) [Entry 15] | >99 | –
Cc1ccc2c(CC(N)C(=O)O)c[nH]c2c1 (stereo not shown) [Entry 16] | 97 | –
Cc1cccc2c(CC(N)C(=O)O)c[nH]c12 (stereo not shown) [Entry 17] | >99 | –
WT: wild-type single-module nonribosomal peptide synthetase IvoA from Aspergillus nidulans | – | kcat^app [1]: 38 ± 3 min⁻¹; kcat^app ([1]; listed as IvoA): 38 min⁻¹; Km ([1]; listed as IvoA): ~50 µM; Km [1]: 50 ± 10 µM; Ki ([1]; substrate inhibition by L-tryptophan, read-out: Ki^app (substrate inhibition)): 4 mM; kobs^app of N-acetyl-D-tryptophan formation [2]: < 0.1 h⁻¹
